From PMC7993727, “Discovery of a novel AR/HDAC6 dual inhibitor for prostate cancer treatment” (Aging (Albany NY), 2021) come the findings set out here.

One series addresses T1, HDAC2 (Homo sapiens, UniProt Q92769).
T1 construct: purchased BPS Bioscience
Kind of series: biochemical. Here is the method:
(§1) Commercial fluorescent assay kits were used to measure the activities of HDAC (BPS Bioscience). Briefly, the tested compounds were diluted in DMSO into a 96-well plate, and then assay buffer, HDAC, and substrate were added. The plate was incubated at 37° C for 30 minutes for enzymatic reactions, and the developer was added. After 10 minutes of incubation, the generated fluorescence was measured at an excitation of 380 nm and an emission of 460 nm.

Series [1] is described as follows: pharmacokinetics of Zeta55 in rats. To be noted: for AUC(0-t): 0-72h. The format is in vivo. Here is the method: To evaluate the pharmacokinetic properties of Zeta55 in vivo, rats were orally (20 mg/kg) or intravenously (5 mg/kg) administrated with Zeta55, and the plasma concentration of Zeta55 was measured using LC-MS/MS.
SD male rats weighing about 250 g were used for the pharmacokinetics study of Zeta55. After a fast of 12 hours, four rats were oral administrated with 20 mg/kg Zeta55 and one rat was tail vein injected with 5 mg/kg Zeta55. Plasma samples of 0.2 ml were taken at 0, 0.083, 0.25, 0.5, 1, 2, 3, 5, 8, 10, 24, 48, and 72 hours after administration and then measured by LC-MS/MS. AUC0-t, AUC0-∞, t1/2, Tmax, Vz/F, and Cl/F were analyzed by Phoenix winnonlin 8.0.

In a further series the test system is AR-LBD. Kind of series: AR competitive binding, fluorescence polarization. The method, then:
To evaluate the AR inhibition activities of Zeta55, an AR luciferase activity assay was performed (Table 1 and Supplementary Figure 1). […]. To evaluate the HDAC inhibition activities of Zeta55, fluorescent-based HDAC assays were performed (Table 1 and Supplementary Figure 3). […]. Both compounds seem ineffective against HDAC4.
Supplementary Figure 1. […]
polarization assay. Test compounds were incubated with recombinant AR-LBD (GST) and the fluorescence polarization (mP) was measured
at an excitation wavelength of 485 nm and emission wavelength of 535 nm. […]
On the technique in general: In fluorescence polarisation assays a small probe gives low polarisation when free and higher when bound to something large.

The next series concerns HSP90, HSP60, HSP70. As to the kind of experiment: expression levels of heat shock proteins. Type of series: cell-based.
The next series addresses T2, HDAC6 (Homo sapiens, UniProt Q9UBN7).
T2 sequence (Q9UBN7 1-1215): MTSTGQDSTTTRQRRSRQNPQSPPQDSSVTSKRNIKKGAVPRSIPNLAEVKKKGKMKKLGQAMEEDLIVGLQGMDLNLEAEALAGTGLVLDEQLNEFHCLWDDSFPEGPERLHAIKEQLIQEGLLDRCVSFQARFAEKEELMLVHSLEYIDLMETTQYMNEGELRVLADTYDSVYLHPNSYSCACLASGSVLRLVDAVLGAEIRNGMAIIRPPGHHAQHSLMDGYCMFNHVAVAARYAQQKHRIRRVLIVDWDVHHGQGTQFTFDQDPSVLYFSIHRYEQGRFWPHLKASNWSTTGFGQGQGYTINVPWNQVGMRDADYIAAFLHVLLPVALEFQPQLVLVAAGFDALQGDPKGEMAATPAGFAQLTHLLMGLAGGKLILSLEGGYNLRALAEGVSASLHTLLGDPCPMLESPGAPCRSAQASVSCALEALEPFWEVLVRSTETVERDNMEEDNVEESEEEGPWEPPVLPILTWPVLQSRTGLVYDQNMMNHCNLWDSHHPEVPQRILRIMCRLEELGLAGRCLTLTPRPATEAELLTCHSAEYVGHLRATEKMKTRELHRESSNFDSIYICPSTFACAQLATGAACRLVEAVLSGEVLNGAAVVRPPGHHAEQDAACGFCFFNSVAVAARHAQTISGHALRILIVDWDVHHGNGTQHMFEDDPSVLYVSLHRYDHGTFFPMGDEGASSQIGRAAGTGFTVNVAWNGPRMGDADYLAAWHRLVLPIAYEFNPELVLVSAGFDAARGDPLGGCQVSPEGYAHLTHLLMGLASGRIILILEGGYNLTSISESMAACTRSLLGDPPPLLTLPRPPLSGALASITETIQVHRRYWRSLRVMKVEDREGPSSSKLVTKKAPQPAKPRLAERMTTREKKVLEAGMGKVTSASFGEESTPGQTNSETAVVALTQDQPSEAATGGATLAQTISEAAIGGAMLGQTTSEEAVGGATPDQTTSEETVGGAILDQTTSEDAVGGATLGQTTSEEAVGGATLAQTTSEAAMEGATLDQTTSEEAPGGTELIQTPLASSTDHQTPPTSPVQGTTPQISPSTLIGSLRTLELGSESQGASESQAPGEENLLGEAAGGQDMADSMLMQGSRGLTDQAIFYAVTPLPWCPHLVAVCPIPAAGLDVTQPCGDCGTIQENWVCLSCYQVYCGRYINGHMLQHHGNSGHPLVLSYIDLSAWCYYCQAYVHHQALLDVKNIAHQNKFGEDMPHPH
Kind of series: fluorescent-based HDAC assay. The format is biochemical. Also on record: purchased BPS Bioscience. Here is the method:
as §1

The mark [2] stands for this setting: IV, tail vein injection 5 mg/kg, n=1, rats.
[3] abbreviates: male, SD, rat, plasma, IV, tail vein injection 5 mg/kg, n=1, rats.
Setting [4] is: male, SD, rat, plasma, PO, oral gavage 20 mg/kg, n=4, rats.

Several values for one entry are separate records, joined by “and”; a condition that tells them apart may be missing. Equal entries are not always repeated. Where only a bound is given, the exact number is not on record here.

T1 sequence (Q92769 whole entry): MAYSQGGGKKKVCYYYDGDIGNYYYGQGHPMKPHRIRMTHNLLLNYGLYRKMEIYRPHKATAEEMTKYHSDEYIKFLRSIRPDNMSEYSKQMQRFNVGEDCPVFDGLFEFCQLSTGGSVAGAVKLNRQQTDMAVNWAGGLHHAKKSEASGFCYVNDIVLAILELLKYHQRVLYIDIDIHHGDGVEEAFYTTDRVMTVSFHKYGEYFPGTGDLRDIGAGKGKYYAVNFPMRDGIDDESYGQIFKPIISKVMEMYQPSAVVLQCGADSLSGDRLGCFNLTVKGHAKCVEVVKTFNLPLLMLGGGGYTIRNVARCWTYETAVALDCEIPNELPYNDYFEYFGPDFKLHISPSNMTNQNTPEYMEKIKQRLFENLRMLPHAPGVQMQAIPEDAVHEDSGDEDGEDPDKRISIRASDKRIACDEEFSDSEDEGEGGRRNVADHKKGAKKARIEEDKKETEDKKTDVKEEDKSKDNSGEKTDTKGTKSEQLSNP

The IC50 is the concentration needed to halve the response being measured. High values mean a need for much substance, low ones inhibition by little substance. One may read the half-life as the time in which the quantity being followed falls by half. Usually AUC(0-inf) stands for the area under the concentration-time curve extrapolated to infinity. Higher therefore signals high exposure. In general, Cmax refers to the maximum level reached in the sampled fluid or tissue. A word on the Tmax: it is the time from dosing to the highest level. The term AUC(0-t) denotes exposure summed from dosing to a finite time, without extrapolation to infinity. Higher therefore signals more exposure. Usually bioavailability stands for dose-corrected exposure relative to a reference, in per cent. A high value points to good availability. Broadly, the CL/F is the apparent clearance, not corrected for the fraction that reaches the circulation. `N#Cc1ccc(N2C(=O)C3(CCC3)N(c3ccc(C(=O)NO)c(F)c3)C2=S)cc1C(F)(F)F` [Zeta55]: the half-inhibitory concentration (IC50) at HDAC2 is over 20000 nM. In series [1] (setting [2]), this molecule returned a Cl/F of 114.6149 mL/min/kg and a Vz/F of 7.741576 L/kg. Also, the t1/2 in series [1] (PO, oral gavage 20 mg/kg, n=4, rats, plasma, 20 mg/kg) was 174 min and 175.5 min. The same molecule gave a half-life in series [1] (male, SD, rat, plasma, iv, 5 mg/kg, tail vein injection 5 mg/kg, n=1, rats) of about 48 min. In series [1] (male, SD, rat, plasma, po, 20 mg/kg, oral gavage 20 mg/kg, n=4, rats), the half-life is about 174 min. In series [1] (setting [3]), the AUC(0-inf) came out at 727 ng·h/mL, the Cmax stood at 1430 ng/mL, the Tmax was found to be 4.98 min and the AUC(0-t) was 722 ng·h/mL. In series [1] (male, SD, rat, plasma, PO 20 mg/kg vs IV 5 mg/kg, rats), this molecule showed a bioavailability of 17.6%. In series [1] (setting [4]), the AUC(0-inf) worked out at 555 ng·h/mL, the apparent clearance CL/F was 632 mL/min/kg, the Cmax was 183 ng/mL and the Tmax was found to be 22.5 min. In series [1] (setting [4]), this molecule displayed an AUC(0-t) of 508 ng·h/mL. Besides, in series [1] (male, SD, rat, plasma, PO, oral gavage 20 mg/kg, n=4, rats, read-out: Vz/F), the Vd/F amounted to 166 L/kg. The “AR binding affinity relative to MDV3100” value in the series on AR-LBD was 60%. Besides, in the series on HSP90, HSP60, HSP70, the “expression levels of HSP70” value is listed as “slightly up-regulated”; the “expression levels of HSP90 and HSP60” value is “did not influence”. This molecule also had an IC50 against HDAC6 of 980 nM. In addition, the “selectivity for HDAC6 over other HDACs tested” value on HDAC6 (over HDAC1, 2, 3, 4) was over 20 folds.
